Measured values: patent publication US20030225132A1, “Estrogen receptor modulators” (priority 2002, published 2003)

Test system: MCF-7 cells
Experiment: MCF-7 Estrogen Dependent Proliferation Assay
Assay type: cell-based
Details: Homo sapiens, MCF7; added to Estrogen Depleted Media (EDM); read-out: EC50 of stimulation of growth of MCF-7 cells
Text: MCF-7 Estrogen Dependent Proliferation Assay MCF-7 cells (ATCC #HTB-22) are human mammary gland adenocarcinoma cells that require estrogen for growth. The growth media (GM) for the MCF-7 cells is Minimum Essential Media (without phenol red) supplemented with fetal bovine serum ([…]) to 10%. The PBS serves as the sole source of estrogen and this GM supports the full growth of the cells and is used for the routine growth of the cell cultures. When MCF-7 cells are placed in a media in which 10% Charcoal-Dextran treated fetal bovine serum (CD-FBS) is substituted for PBS, the cells will cease to divide but will remain viable. […] The addition of estradiol to EDM stimulates the growth of the MCF-7 cells in a dose dependent manner with an EC50 of 2 pM. Growing MCF-7 cells are washed several times with EDM and the cultures then maintained in EDM for a minimum of 6 days in order to deplete the cells of endogenous estrogen. […] At this point, the culture supernatants are aspirated, the cells washed 2× with PBS, the wash solution aspirated and the protein content of each well determined. Each drug dilution is evaluated on a minimum of 5 wells and the range of dilution of the test compounds in the assay is 0.001 nM to 1000 nM. […] The assay is terminated at day 8-10 when the appropriate controls reach 80-90% confluency and the protein content of each well is determined as above.

- EC50: 2 pM
Compound: C[C@]12CC[C@@H]3c4ccc(O)cc4CC[C@H]3[C@@H]1CC[C@@H]2O [estradiol]
